Experimental data published in patent publication US4180655A, “Nitrosourea derivatives” (Suami; Tetsuo, priority 1974, dated 1979).
Read-outs that look alike come from different tables or passages of the source.

Columns and labels:
Leukemia L1210 cells = assay: Chemotherapeutic effect of nitrosourea derivatives on leukemia L1210 in mice; assay type: in vivo, mice (BDF1/BDF); parameters: Volume of ascites, Treated: unit not given here
Description: Chemotherapeutic effect of a variety of the nitrosourea derivatives of the formula I according to this invention on leukemia L1210 in mice were investigated by the following method and materials.
A--BDF1 mice (about 6 week-aged; body weight: 22±1 g); each experimental group was composed of 2 male mice.
B--BDF1 mice (about 7 week-aged; body weight: 21±2 g); each experimental group was composed of 3 male mice.
C--BDF mice (about 7 week-aged; body weight: 22±2 g); each experimental group was composed of 2 male mice.
D--BDF mice (about 6 week-aged; body weight: 21±2 g); each experimental group was composed of 3 male mice.
E--BDF1 mice (about six week-aged; body weight 20±1 g); each experimental group was composed of 3 female mice.
F--BDF1 mice (about six week-aged; body weight 21±1 g); each experimental group was composed of 3 male mice.
A--Leukemia L1210 cells (2.1×10^6 cells/ 0.05 ml/mouse) were intraperitoneally inoculated.
B--Leukemia L1210 cells (1.9×10^6 cells/0.05 ml/mouse) were intraperitoneally inoculated.
C--Leukemia L1210 cells (1.2×10^6 cells/0.05 ml/mouse) were intraperitoneally inoculated.
A--The test compound was dissolved in a physiological saline solution and administered intraperitoneally at a volume of 0.1 ml/mouse. The administration was made at once/day, from 24 hours after i.p. inoculation of L1210 cells, for 3 days. The effect of test compound was assessed by mean survival days of mice, percent increase in life-span, anatomical findings involving the volume of ascites.
B--The same as that used in A except that the drug administration was continued for 5 days.
C--The same as that used in A except that the test compound was suspended in 0.5% CMC solution and that the drug administration was continued for 5 days.
D--The same as that used in A except that the test compound was dissolved in distilled water for injection purposes.
The percentage increase in life-span (ILS) was calculated as follows:
Percentage increase in life-span (ILS)=T-C/C×100
T: The mean survival days of the treated animals.
C: The mean survival days of the untreated control.

[1] = LD50 value / toxicity in the intraperitoneal administration to BDF1 mice; conditions: mouse, in vivo, ip
Description: The new nitrosourea derivatives according to this invention are further characterized by their low toxicity, thus satisfying their practical application for treating leukemia and tumor diseases.

[2] = 0.2 mg/kg i.p. once/day for 3 days (procedure A, saline)
[3] = 0.5 mg/kg i.p. once/day for 3 days (procedure A, saline)
[4] = 1 mg/kg i.p. once/day for 3 days (procedure A, saline)
[5] = 2 mg/kg i.p. once/day for 3 days (procedure A, saline)
[6] = 4 mg/kg i.p. once/day for 3 days (procedure A, saline)
[7] = 5 mg/kg i.p. once/day for 3 days (procedure A, saline)
[8] = 6.25 mg/kg i.p. once/day for 3 days (procedure A, saline)
[9] = 8 mg/kg i.p. once/day for 3 days (procedure A, saline)
[10] = 10 mg/kg i.p. once/day for 3 days (procedure A, saline)
[11] = 50 mg/kg i.p. once/day for 3 days (procedure A, saline)
[12] = 100 mg/kg i.p. once/day for 3 days (procedure A, saline)
[13] = 150 mg/kg i.p. once/day for 3 days (procedure A, saline)
[14] = 200 mg/kg i.p. once/day for 3 days (procedure A, saline)
[15] = 100 mg/kg i.p. once/day for 3 days (procedure D, distilled water)
[16] = 200 mg/kg i.p. once/day for 3 days (procedure D, distilled water)
[17] = 400 mg/kg i.p. once/day for 3 days (procedure D, distilled water)

What does the source list for `O=NN(CCCl)C(=O)N[C@@H]1O[C@H](CO)[C@@H](O)[C@H](O)[C@H]1O` [Compound 1, 1-(2-chloroethyl)-3-(β-D-glucopyranosyl)-1-nitrosourea]?
Survival days, Treated (mean) (Leukemia L1210 cells; [2]): 12.0 days; Volume of ascites, Treated (Leukemia L1210 cells; [2]): 4.2; Survival days, Treated (mean) (Leukemia L1210 cells; [3]): 12.5 days; Volume of ascites, Treated (Leukemia L1210 cells; [3]): 4.2; Survival days, Treated (mean) (Leukemia L1210 cells; [4]): 12.9 days; Volume of ascites, Treated (Leukemia L1210 cells; [4]): 5.0; Survival days, Treated (mean) (Leukemia L1210 cells; [5]): 15.3 days; Volume of ascites, Treated (Leukemia L1210 cells; [5]): 2.5; Survival days, Treated (mean) (Leukemia L1210 cells; [6]): 40.3 days; Volume of ascites, Treated (Leukemia L1210 cells; [6]): 0; Survival days, Treated (mean) (Leukemia L1210 cells; [7]): 15.3 days; Volume of ascites, Treated (Leukemia L1210 cells; [7]): 1.5; Survival days, Treated (mean) (Leukemia L1210 cells; [8]): > 40.1 days; Volume of ascites, Treated (Leukemia L1210 cells; [8]): 0; Survival days, Treated (mean) (Leukemia L1210 cells; [9]): 95.9 days; Volume of ascites, Treated (Leukemia L1210 cells; [9]): 0; Survival days, Treated (mean) (Leukemia L1210 cells; [10]): 95.9 days; Volume of ascites, Treated (Leukemia L1210 cells; [10]): 0; ILS at 0.2 mg/kg (Leukemia L1210 cells; Mus musculus, L1210, ip, 72 h, 0.2 mg/kg i.p. once/day for 3 days (procedure A, saline), read-out: Percentage increase in life-span (ILS)): 29%; ILS at 0.5 mg/kg (Leukemia L1210 cells; Mus musculus, L1210, ip, 72 h, 0.5 mg/kg i.p. once/day for 3 days (procedure A, saline), read-out: Percentage increase in life-span (ILS)): 34.4%; ILS at 1 mg/kg (Leukemia L1210 cells; Mus musculus, L1210, ip, 72 h, 1 mg/kg i.p. once/day for 3 days (procedure A, saline), read-out: Percentage increase in life-span (ILS)): 38.7%; ILS at 2 mg/kg (Leukemia L1210 cells; Mus musculus, L1210, ip, 72 h, 2 mg/kg i.p. once/day for 3 days (procedure A, saline), read-out: Percentage increase in life-span (ILS)): 64.5%; ILS at 4 mg/kg (Leukemia L1210 cells; Mus musculus, L1210, ip, 72 h, 4 mg/kg i.p. once/day for 3 days (procedure A, saline), read-out: Percentage increase in life-span (ILS)): 333%; ILS at 5 mg/kg (Leukemia L1210 cells; Mus musculus, L1210, ip, 72 h, 5 mg/kg i.p. once/day for 3 days (procedure A, saline), read-out: Percentage increase in life-span (ILS)): 64.5%; ILS at 6.25 mg/kg (Leukemia L1210 cells; Mus musculus, L1210, ip, 72 h, 6.25 mg/kg i.p. once/day for 3 days (procedure A, saline), read-out: Percentage increase in life-span (ILS)): > 331%; ILS at 8 mg/kg (Leukemia L1210 cells; Mus musculus, L1210, ip, 72 h, 8 mg/kg i.p. once/day for 3 days (procedure A, saline), read-out: Percentage increase in life-span (ILS)): 931%; ILS at 10 mg/kg (Leukemia L1210 cells; Mus musculus, L1210, ip, 72 h, 10 mg/kg i.p. once/day for 3 days (procedure A, saline), read-out: Percentage increase in life-span (ILS)): 931%; LD50 [1]: ~25 mg/kg

Which “Survival days, Treated (mean)” value (Leukemia L1210 cells; 0.25 mg/kg i.p. once/day for 5 days (procedure C, 0.5% CMC)) does the source give for `COc1cccc2c1C(=O)c1c(O)c3c(c(O)c1C2=O)C[C@@](O)(C(C)=O)C[C@@H]3O[C@H]1C[C@H](N)[C@H](O)[C@H](C)O1` [Compound 10, Daunomycin, reference compound] here?
The value was 10.2 days.

What about the “Survival days, Treated (mean)” value (Leukemia L1210 cells; 0.5 mg/kg i.p. once/day for 5 days (procedure C, 0.5% CMC)) of the same molecule?
The value was 12.8 days.

And the “Survival days, Treated (mean)” value (Leukemia L1210 cells; 1 mg/kg i.p. once/day for 5 days (procedure C, 0.5% CMC))?
Its value is 12.6 days.

What about the “Survival days, Treated (mean)” value (Leukemia L1210 cells; 2 mg/kg i.p. once/day for 5 days (procedure C, 0.5% CMC)) of the same molecule?
The value was 13.6 days.

What about the ILS at 0.25 mg/kg (Leukemia L1210 cells; Mus musculus, L1210, ip, 120 h, 0.25 mg/kg i.p. once/day for 5 days (procedure C, 0.5% CMC), read-out: Percentage increase in life-span (ILS)) of the same molecule?
Its ILS at 0.25 mg/kg is 20%.

And the ILS at 0.5 mg/kg (Leukemia L1210 cells; Mus musculus, L1210, ip, 120 h, 0.5 mg/kg i.p. once/day for 5 days (procedure C, 0.5% CMC), read-out: Percentage increase in life-span (ILS))?
The ILS at 0.5 mg/kg was 50.6%.

And the ILS at 1 mg/kg (Leukemia L1210 cells; Mus musculus, L1210, ip, 120 h, 1 mg/kg i.p. once/day for 5 days (procedure C, 0.5% CMC), read-out: Percentage increase in life-span (ILS))?
Its ILS at 1 mg/kg is 48.3%.

And the ILS at 2 mg/kg (Leukemia L1210 cells; Mus musculus, L1210, ip, 120 h, 2 mg/kg i.p. once/day for 5 days (procedure C, 0.5% CMC), read-out: Percentage increase in life-span (ILS))?
Its ILS at 2 mg/kg is 60%.

With `CN(N=O)C(=O)N[C@@H]1O[C@H](CO)[C@@H](O)[C@H](O)[C@H]1O` [Compound 11, 1-(β-D-glucopyranosyl)-3-methyl-3-nitrosourea, reference compound] as the molecule, how does the “Survival days, Treated (mean)” value (Leukemia L1210 cells; [11]) read?
The value was 12.0 days.

What about the “Volume of ascites, Treated” value (Leukemia L1210 cells; [11]) of the same molecule?
Its value is 2.8.

What about the “Survival days, Treated (mean)” value (Leukemia L1210 cells; [12]) of the same molecule?
The value was 13.9 days.

And the “Volume of ascites, Treated” value (Leukemia L1210 cells; [12])?
Its value is 4.6.

And the “Survival days, Treated (mean)” value (Leukemia L1210 cells; [13])?
Its value is 14.1 days.

And the “Volume of ascites, Treated” value (Leukemia L1210 cells; [13])?
The value was 1.9.

What about the “Survival days, Treated (mean)” value (Leukemia L1210 cells; [14]) of the same molecule?
The value was 16.6 days.

What about the “Volume of ascites, Treated” value (Leukemia L1210 cells; [14]) of the same molecule?
Its value is 1.4.

What about the ILS at 50 mg/kg (Leukemia L1210 cells; Mus musculus, L1210, ip, 72 h, 50 mg/kg i.p. once/day for 3 days (procedure A, saline), read-out: Percentage increase in life-span (ILS)) of the same molecule?
The ILS at 50 mg/kg was 55.6%.

What about the ILS at 100 mg/kg (Leukemia L1210 cells; Mus musculus, L1210, ip, 72 h, 100 mg/kg i.p. once/day for 3 days (procedure A, saline), read-out: Percentage increase in life-span (ILS)) of the same molecule?
The ILS at 100 mg/kg was 80.7%.

And the ILS at 150 mg/kg (Leukemia L1210 cells; Mus musculus, L1210, ip, 72 h, 150 mg/kg i.p. once/day for 3 days (procedure A, saline), read-out: Percentage increase in life-span (ILS))?
Its ILS at 150 mg/kg is 83.4%.

And the ILS at 200 mg/kg (Leukemia L1210 cells; Mus musculus, L1210, ip, 72 h, 200 mg/kg i.p. once/day for 3 days (procedure A, saline), read-out: Percentage increase in life-span (ILS))?
Its ILS at 200 mg/kg is 108%.

Which “Survival days, Treated (mean)” value (Leukemia L1210 cells; [15]) does the source give for `CN(N=O)C(=O)N[C@@H](CO)[C@@H](O)[C@H](O)[C@H](O)CO` [Compound 12, N-carbamoyl-N'-methyl-N'-nitroso-D-glucosaminol, reference compound] here?
The value was 13.9 days.

And the “Volume of ascites, Treated” value (Leukemia L1210 cells; [15])?
The value was 3.0.

What about the “Survival days, Treated (mean)” value (Leukemia L1210 cells; [16]) of the same molecule?
Its value is 15.0 days.

And the “Volume of ascites, Treated” value (Leukemia L1210 cells; [16])?
Its value is 4.0.

And the “Survival days, Treated (mean)” value (Leukemia L1210 cells; [17])?
Its value is 13.4 days.

And the “Volume of ascites, Treated” value (Leukemia L1210 cells; [17])?
Its value is 3.4.

What about the ILS at 100 mg/kg (Leukemia L1210 cells; Mus musculus, L1210, ip, 72 h, 100 mg/kg i.p. once/day for 3 days (procedure D, distilled water), read-out: Percentage increase in life-span (ILS)) of the same molecule?
Its ILS at 100 mg/kg is 30%.

What about the ILS at 200 mg/kg (Leukemia L1210 cells; Mus musculus, L1210, ip, 72 h, 200 mg/kg i.p. once/day for 3 days (procedure D, distilled water), read-out: Percentage increase in life-span (ILS)) of the same molecule?
Its ILS at 200 mg/kg is 40%.

What about the ILS at 400 mg/kg (Leukemia L1210 cells; Mus musculus, L1210, ip, 72 h, 400 mg/kg i.p. once/day for 3 days (procedure D, distilled water), read-out: Percentage increase in life-span (ILS)) of the same molecule?
Its ILS at 400 mg/kg is 25%.
